Measured values: patent US20160067272A1, “METHODS FOR TREATING IMMUNE DISEASES” (priority 2013, published 2016)

How the values were obtained:
naïve CD4+ T cells [1] = assay: Naïve CD4+ T cell differentiation without polarizing cytokines (Th0); format: cell-based, mouse
Description: It has been shown that NAD^+ can regulate T cell activation^36-38, but its role in T cell development was not shown. In this study, it was tested whether NAD^+ was able to regulate T cell differentiation in vitro. Naïve CD4^+ T cells were isolated from spleen of DBA mice and cultured for 96 hrs in presence of increasing NAD^+ concentration and in presence of recombinant IL-2 and stimulated with anti-CD3/CD28 antibodies. Cytokine expression and secretion were analyzed by flow cytometry and ELISA, respectively. […] Of note, the production of pro-inflammatory cytokines such as IL-6 and TNF-α or the immunosuppressive cytokine IL-10 were inhibited by NAD^| (FIG. 7A).
(§1) Single-cell leukocyte suspensions were obtained from spleens from 8-10 week old DBA mice and CD4^− T cells were isolated by negative selection using a CD4^+ T cell isolation kit (MILTENYI BIOTEC, Bergisch Gladbach, Germany). Cells were further sorted using α-CD4-PE (EBIOSCIENCE, San Diego, Calif.) and purities of CD4^+ T cells after isolation were >98%.
(§2) All recombinant cytokines and antibodies were purchased from EBIOSCIENCE except recombinant TGF-β cytokine (R&D SYSTEMS, Minneapolis, Minn.). After 96 hrs of culture supernatants and cells were collected and analyzed by ELISA and flow cytometry, respectively.
(§3) Fluorescently labeled anti-mouse α-CD4 (GK1.5), α-CD25 (PC61), α-IFN-γ (XMG1.2) and unlabeled α-CD16/CD32 (2.4G2) antibodies were obtained from BD BIOSCIENCES (San Jose, Calif.). Fluorescently labeled anti-mouse α-IL-4 (FJK-16s), α-IL-10 (JES5-16E3), α-IL-17A (eBio17B7), and anti-TGFβ (TW7-16B4) were obtained from eBIOSCIENCE (San Diego, Calif.). Intracellular staining for IL-4, IL-10, IL-17A, IFNγ and TGFβ was performed according to manufacturers' protocols. Splenocytes were re-stimulated in complete media (RPMI media containing 10% FCS, 1% L-Glutamine, 1% Penicillin/Streptomycin; all Bio Whittaker, Walkersville, Md.) for 4 hours at 37° C. with ionomycin, phorbol 12-myristate 13-acetate and Brefelding A (EBIOSCIENCE). Cells were fixed and permeabilized using CYTOFIX/CYTOPERM solution (BD BIOSCIENCES). Flow cytometry measurements of single-cell suspensions were performed on a FACSCalibur using standard procedures and data were analyzed using FLOWJO software (TREE STAR, Ashland, Oreg.).

naïve CD4+ T cells [2] = assay: Naïve CD4+ T cell differentiation under iTreg polarizing conditions; format: cell-based, mouse
Text: Next, it was investigated whether NAD^+ modulates CD4^+ T differentiation under iTreg polarizing conditions. Isolated naïve CD4^+ T cells were activated with anti-CD3/CD28 antibodies in presence of recombinant TGFβ and IL-2 cytokines and blocking anti-IL-4, anti-IL-12 and anti-IFNγ antibodies.
as §1, §2, §3

[3] = system: tryptophan hydroxylase-1 (Tph-1) and carboxypeptidase A3 (CA3); assay: Gene expression in CD4+ T cells (microarray, qPCR); format: cell-based, mouse
Text: After successive washes, RNA was eluted.

CD4+CD25+ nTregs = assay: Functional in-vitro Treg cell assay (flow cytometry, ELISA, real-time PCR); format: cell-based, mouse
Human nTregs = assay: Human nTreg conversion into IL-17A producing cells; format: cell-based
Description: Several discrepancies have been reported for mechanisms promoting Th17 cell development in mice and human^15. […] In addition, it has been shown that IL-2 inhibits Th17 development^16. In contrast, human Th17 differentiation requires IL-1β and IL-6 and can be inhibited by TFG-β and IL-2^34. […] Therefore, it was tested whether NAD^+ was a universal molecule that was able to enhance nTreg conversion into Th17 cells in human and mice as well. Human nTregs were isolated and cultured in presence of increasing NAD^− concentrations and IL-2. […] Of note, human nTregs conversion into IL-17A^+ producing cells remained CD4^+CD25^+.
For isolation of human Treg cells, peripheral blood mononuclear cells were obtained from young healthy volunteers using density gradient centrifugation with Ficoll-Paque (STEMCELL TECHNOLOGIES, Vancouver, BC, Canada). Non-CD4^+ T cells were then depleted using biotin-conjugated monoclonal anti-human antibodies against CD8, CD14, CD15, CD16, CD19, CD36, CD56, CD123, TCRγ/δ, CD235a (Glycophorin A) and anti-biotin magnetic beads (Miltenyi Biotec). […]
For cultivation of human Treg cells, recombinant human IL-2 (EBIOSCIENCE) and superparamagnetic beads coupled with human α-CD3 and α-CD28 (LIFE TECHNOLOGIES, Carlsbad, Calif.) were used. Cells were cultured during 10 days and analyzed by flow cytometry.

[4] = system: P2RX4, P2RX7, P2RY1, P2RY2, P2RY4; assay: Purinergic receptor expression in nTregs (real-time PCR, immunofluorescence); format: cell-based, mouse; conditions: 24 hrs
[5] = nTregs with NAD+, 24 hrs of culture
[6] = nTregs with NAD+, after 4 days of culture
[7] = nTregs, increasing NAD+, 96 hrs, real-time PCR and ELISA
[8] = nTregs, anti-CD3/CD28, with vs without NAD+

Question: How did the IFNγ cytokine production (naïve CD4+ T cells [1]; Th0, 96 hrs, ELISA) turn out when NC(=O)c1ccc[n+]([C@@H]2O[C@H](COP(=O)([O-])OP(=O)(O)OC[C@H]3O[C@@H](n4cnc5c(N)ncnc54)[C@H](O)[C@@H]3O)[C@@H](O)[C@H]2O)c1 [NAD+, nicotinamide adenine dinucleotide] was run?
Answer: Its IFNγ cytokine production is “promote a robust”.

Question: And the IL-4 cytokine production (naïve CD4+ T cells [1]; Th0, 96 hrs, ELISA)?
Answer: The IL-4 cytokine production was “inhibit”.

Question: And the IL-6 production (naïve CD4+ T cells [1]; Th0, 96 hrs, ELISA)?
Answer: The IL-6 production was “inhibited”.

Question: And the IL-10 production (naïve CD4+ T cells [1]; Th0, 96 hrs, ELISA)?
Answer: The IL-10 production was “inhibited”.

Question: And the IL-17 cytokine production (naïve CD4+ T cells [1]; Th0, 96 hrs, ELISA)?
Answer: The IL-17 cytokine production was “promote a robust”.

Question: What about the TNF-α production (naïve CD4+ T cells [1]; Th0, 96 hrs, ELISA) of the same compound?
Answer: Its TNF-α production is “inhibited”.

Question: What about the “CD4+IFNγ+ cell frequency” value (naïve CD4+ T cells [1]; Th0, flow cytometry) of the same compound?
Answer: The value was “increased”.

Question: And the “CD4+IL-4+ cell frequency” value (naïve CD4+ T cells [1]; Th0, flow cytometry)?
Answer: The value was “reduced”.

Question: What about the “CD4+IL-17+ cell frequency” value (naïve CD4+ T cells [1]; Th0, flow cytometry) of the same compound?
Answer: Its value is “increased”.

Question: And the TGFβ production (naïve CD4+ T cells [1]; Th0 polarizing conditions)?
Answer: The TGFβ production was “no TGFβ production”.

Question: And the “amount of TGFβ” value (naïve CD4+ T cells [2])?
Answer: Its value is “reduced amount”.

Question: What about the IL-6 production (naïve CD4+ T cells [2]; ELISA) of the same compound?
Answer: Its IL-6 production is “remained unchanged”.

Question: And the IL-10 secretion (naïve CD4+ T cells [2]; ELISA)?
Answer: Its IL-10 secretion is “reduced”.

Question: And the IL-17A cytokine production (naïve CD4+ T cells [2]; ELISA)?
Answer: The IL-17A cytokine production was “increased”.

Question: What about the TNF-α production (naïve CD4+ T cells [2]; ELISA) of the same compound?
Answer: Its TNF-α production is “inhibited”.

Question: What about the “frequency of CD4+IL10+ cells” value (naïve CD4+ T cells [2]; flow cytometry) of the same compound?
Answer: Its value is “robust decreased frequency”.

Question: And the “frequency of CD4+IL17A+ cells” value (naïve CD4+ T cells [2]; flow cytometry)?
Answer: The value was “increased frequency”.

Question: What about the “number of CD4+TGFβ+IL-10+ cells” value (naïve CD4+ T cells [2]; flow cytometry) of the same compound?
Answer: The value was “decreased number”.

Question: And the “carboxypeptidase A3 (CA3) (microarray)” value ([3]; during CD4+ T helper cell differentiation)?
Answer: The value was “activate”.

Question: What about the “Tph-1 expression (qPCR)” value ([3]; with vs without NAD+) of the same compound?
Answer: The value was “up-regulation”.

Question: And the “cells able to produce IL-17A” value (CD4+CD25+ nTregs; 250 μM NAD+, 96 hrs of culture)?
Answer: Its value is “more than 16%”.

Question: What about the nTregs apoptosis (CD4+CD25+ nTregs; Annexin V, increasing NAD+) of the same compound?
Answer: Its nTregs apoptosis is “induced”.

Question: And the “proliferation of CD4+CD25−IL-17A+Foxp3+ cells (CFSE)” value (CD4+CD25+ nTregs; NAD+, dose dependent manner, no exogenous IL-23)?
Answer: The value was “able to proliferate”.

Question: What about the “frequencies of CD4+CD25+FoxP3+ cells” value (CD4+CD25+ nTregs; increased NAD+ concentrations, IL-2, no TGFβ/IL-6) of the same compound?
Answer: The value was “reduced”.

Question: What about the “apoptosis of CD4+CD25−IL-17A+Foxp3+ cells (annexin V)” value (CD4+CD25+ nTregs; increasing NAD+, 48 and 96 hrs) of the same compound?
Answer: The value was “did not become apoptotic”.

Question: What about the IL-17A cytokine production (CD4+CD25+ nTregs; nTregs from STAT3−/− mice vs wild type, with NAD+, 96 hrs, ELISA) of the same compound?
Answer: The IL-17A cytokine production was “reduced”.

Question: What about the “frequency of IL-17A+ cells” value (CD4+CD25+ nTregs; nTregs from STAT3−/− mice vs wild type, with NAD+, 96 hrs, flow cytometry) of the same compound?
Answer: The value was “significant decreased, but not complete”.

Question: What about the “Foxp3 mRNA level” value (CD4+CD25+ nTregs; [5]) of the same compound?
Answer: The value was “significantly increased”.

Question: And the GATA3 expression level (CD4+CD25+ nTregs; [5])?
Answer: The GATA3 expression level was “remained unchanged”.

Question: What about the “RORγt mRNA level” value (CD4+CD25+ nTregs; [5]) of the same compound?
Answer: The value was greater than 10 fold.

Question: And the “STAT3 mRNA level” value (CD4+CD25+ nTregs; [5])?
Answer: Its value is greater than 10 fold.

Question: And the STAT5 expression level (CD4+CD25+ nTregs; [5])?
Answer: Its STAT5 expression level is “remained unchanged”.

Question: What about the Tbx21 expression level (CD4+CD25+ nTregs; [5]) of the same compound?
Answer: The Tbx21 expression level was “remained unchanged”.

Question: And the “Foxp3 mRNA level” value (CD4+CD25+ nTregs; [6])?
Answer: Its value is “remained significantly increased”.

Question: And the “GATA-3 mRNA level” value (CD4+CD25+ nTregs; [6])?
Answer: Its value is “decreased significantly”.

Question: And the “RORγt mRNA level” value (CD4+CD25+ nTregs; [6])?
Answer: Its value is “remained significantly increased”.

Question: What about the “STAT3 mRNA level” value (CD4+CD25+ nTregs; [6]) of the same compound?
Answer: The value was “remained significantly increased”.

Question: And the “STAT5 mRNA level” value (CD4+CD25+ nTregs; [6])?
Answer: Its value is “decreased significantly”.

Question: What about the “Tbx21 mRNA level” value (CD4+CD25+ nTregs; [6]) of the same compound?
Answer: The value was “decreased significantly”.

Question: And the “IFNγ mRNA and cytokine levels” value (CD4+CD25+ nTregs; [7])?
Answer: The value was “decreased in a dose dependent manner”.

Question: What about the “IL-4 mRNA and cytokine levels” value (CD4+CD25+ nTregs; [7]) of the same compound?
Answer: The value was “decreased in a dose dependent manner”.

Question: And the “IL-10 mRNA and cytokine levels” value (CD4+CD25+ nTregs; [7])?
Answer: Its value is “decreased dramatically”.

Question: What about the “IL-17A mRNA and protein levels” value (CD4+CD25+ nTregs; [7]) of the same compound?
Answer: The value was “increased in a dose dependent manner”.

Question: And the “TGFβ mRNA and cytokine levels” value (CD4+CD25+ nTregs; [7])?
Answer: The value was “decreased dramatically”.

Question: And the IL-17A cytokine production (Human nTregs; increasing NAD+ and IL-2, ELISA)?
Answer: Its IL-17A cytokine production is “enhance”.

Question: What about the “number of IL-17A+ cells” value (Human nTregs; increasing NAD+ and IL-2, flow cytometry) of the same compound?
Answer: Its value is “increased”.

Question: What about the “expression of P2RX4 receptor on the cell surface” value ([4]; immunofluorescence, 50 μM NAD) of the same compound?
Answer: Its value is “increased”.

Question: And the “expression of P2RX7 receptor on the cell surface” value ([4]; immunofluorescence, 50 μM NAD)?
Answer: The value was “increased”.

Question: What about the “P2RX4 mRNA expression level” value [4, 8] of the same compound?
Answer: The value was greater than 4 fold.

Question: And the “P2RX7 mRNA expression level” value [4, 8]?
Answer: Its value is greater than 15 fold.

Question: And the “P2RY1 mRNA level” value ([4]; nTregs, with vs without NAD+)?
Answer: The value was “remained unchanged”.

Question: And the “P2RY2 mRNA level” value ([4]; nTregs, with vs without NAD+)?
Answer: Its value is “remained unchanged”.

Question: What about the “P2RY4 mRNA level” value ([4]; nTregs, with vs without NAD+) of the same compound?
Answer: The value was “remained unchanged”.
